The test system of the assay is 5′-TAMRA-AM1A (RNA, riboswitch) GAGGGUGGAACCGCGCUUCGGCGUCCCUC
In words: fluorescence titration. The note with it: 50 mM NaCl; 50 mM MOPS pH 6.5, 0.01 mM EDTA; 100 nM RNA; apparent.

Turning to `NCCCCNCCCN`, the Kd amounted to 54 ± 12 µM.

Source of the values: publication PMC4761420 (2015).
